From patent US5071857A, “2,6-dioxopiperidine derivatives, their preparation and pharmaceutical compositions containing them” (National Research Development Corporation, priority 1983, dated 1991)
Like-named read-outs stand apart in the source and are kept apart here.

What was measured:
aromatase = molecular target: T1, aromatase (Homo sapiens, UniProt P11511); assay: Inhibition of aromatase (microsomal fraction of human placental tissue, 3H2O release from (1,2-3H) testosterone); assay type: biochemical
T1 construct: Aromatase was obtained from the microsomal fraction of human placental tissue; from tissue; host or cells: human placenta, microsomal fraction
T1 sequence (P11511 1-503): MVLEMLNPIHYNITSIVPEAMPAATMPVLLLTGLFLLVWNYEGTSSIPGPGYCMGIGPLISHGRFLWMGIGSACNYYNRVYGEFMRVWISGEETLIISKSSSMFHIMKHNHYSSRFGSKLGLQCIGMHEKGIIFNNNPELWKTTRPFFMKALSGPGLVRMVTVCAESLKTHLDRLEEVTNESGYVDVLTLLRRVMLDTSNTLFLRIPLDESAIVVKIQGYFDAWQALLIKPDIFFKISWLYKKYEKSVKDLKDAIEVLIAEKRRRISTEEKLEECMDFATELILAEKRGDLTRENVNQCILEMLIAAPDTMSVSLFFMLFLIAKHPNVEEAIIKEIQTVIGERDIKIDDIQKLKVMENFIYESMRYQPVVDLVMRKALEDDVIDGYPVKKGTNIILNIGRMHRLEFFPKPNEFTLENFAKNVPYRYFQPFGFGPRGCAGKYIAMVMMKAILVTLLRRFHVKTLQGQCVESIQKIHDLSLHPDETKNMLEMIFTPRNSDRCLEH
Method: The activity of various glutarimides against the enzymes aromatase and desmolase was assayed as follows. Each compound was examined over a range of concentrations. At each concentration of inhibitor, samples were removed at three time points. The results were plotted on a graph of product released against time of incubation. The resulting linear graph was used to determine the rate of enzyme reaction at each concentration of inhibitor.
A. Desmolase The mitochondrial fraction of bovine adrenal cortex provided the source of desmolase and the method of isolation was essentially as published by R. B. Hochberg et al., Biochemistry, 13, 603 (1974). The enzyme activity was assayed using (26-^14 C)-cholesterol as substrate and measuring the ^14 C-isocaproic acid released, see R. B. Hochberg et al., supra. and V. I. Uzgiris et al., Endocrinology, 101, 89 (1977). Inhibitor compounds were added in ethanol (microliters) and an equal volume of ethanol was added to the control assay. The total volume of the assay mixture was 1.0 ml. After preincubating the assay tubes at 30° C. for 5 minutes, the reaction was started by the addition of 1 mg of mitochondrial protein. Samples were removed after 2,4 and 6 minutes of incubation and the assay completed as described.

desmolase [1] = molecular target: T2, desmolase (Bos taurus, UniProt P00189); assay: Inhibition of desmolase (mitochondrial fraction of bovine adrenal cortex, 14C-isocaproic acid release from (26-14C)-cholesterol); assay type: biochemical
T2 construct: The mitochondrial fraction of bovine adrenal cortex provided the source of desmolase; from tissue; host or cells: bovine adrenal cortex, mitochondrial fraction
T2 sequence (P00189 40-520): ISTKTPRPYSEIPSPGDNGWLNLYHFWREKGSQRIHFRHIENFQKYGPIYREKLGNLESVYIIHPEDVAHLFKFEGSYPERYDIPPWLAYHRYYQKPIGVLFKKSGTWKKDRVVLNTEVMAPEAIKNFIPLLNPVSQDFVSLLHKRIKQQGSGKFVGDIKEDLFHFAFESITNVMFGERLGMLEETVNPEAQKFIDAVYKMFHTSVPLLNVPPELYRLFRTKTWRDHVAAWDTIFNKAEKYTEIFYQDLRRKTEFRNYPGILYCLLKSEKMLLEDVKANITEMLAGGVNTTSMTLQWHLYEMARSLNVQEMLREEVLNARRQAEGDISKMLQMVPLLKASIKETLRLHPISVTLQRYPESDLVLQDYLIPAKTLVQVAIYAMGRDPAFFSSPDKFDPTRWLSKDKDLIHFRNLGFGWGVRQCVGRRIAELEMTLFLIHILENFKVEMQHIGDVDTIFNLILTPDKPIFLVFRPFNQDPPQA

[2] = prior art; cited from earlier work
[3] = system: Rat mammary tumours induced with MNU (N-methyl-N-nitrosourea); assay: Tests in vivo on tumour regression, MNU-induced rat mammary tumours; parameters: species or system rat (Ludwig Wistar/Ola, WF/ICRF/Ola, female); conditions: for percentage of tumours which regress (in words): 42 days; for percentage of tumours which regress (in words) / No. tumours grown by more than 100% / No. tumours grown by up to 100% / No. tumours regressed but by less than 50% / No. tumours regressed by 50% or more / No. tumours with no change: 0.165 millimoles/kg/day s.c.; for No. tumours grown by more than 100% / No. tumours grown by up to 100% / No. tumours regressed but by less than 50% / No. tumours regressed by 50% or more / No. tumours with no change: after 6 weeks (42 days)
Method: Unlike DMBA (7,12-dimethylbenz[a]anthracene) induced tumours, MNU tumours may be primarily oestrogen-, rather than prolactin-dependent, see Pruitt, Rose and Bryan, Proc. Ann. Cancer Res. 20, 87, (1979).
Using the method of Williams et al., supra, mammary tumours were induced in virgin female rats of the inbred strain Ludwig Wistar/Ola (WF/ICRF/Ola) by intravenous administration of MNU. MNU was dissolved in 0.9% aqueous sodium chloride solution acidified to pH 5 with acetic acid. Starting at age 50 days, each rat received 3 injections at 14 day intervals via the tail vein (5 mg MNU/100 g body weight/injection; injection volume of 0.5 ml/rat). Animals were assigned to experimental groups at 125-140 days after the first injection, with 12 animals in each group. At this time they bore from 1-3 tumours per animal.
Controls received equivalent injections of DMSO alone.
Results were expressed in terms of the percentage of initial tumour volume for each tumour after 42 day, treatment.

[4] = Stability of injection solutions at pH 3.5-4; assay type: physicochemical
Method: This went into solution at low pH very nicely. M NaOH was added to pH 3.5-4. The volume was made up using deionized water.

central nervous system [5] = assay: Behavioral observations (Irwin observational assessment); conditions: for Passivity: rating 0-4, 20-30 minutes after injection
central nervous system [6] = assay: Rotating rod experiments (rotarod test), drug-induced ataxia; conditions: for time of peak effect after injection: i.p.
central nervous system [7] = assay: Studies on anticonvulsant properties, pentylenetetrazol-induced convulsions; conditions: for prevention of pentylenetetrazol-induced convulsions: pentylenetetrazol 50 mg/kg
desmolase [8] = conditions: background; cited from earlier work
[9] = 1.5 micromolar (3H) testosterone
[10] = compared with aminoglutethimide

CCC1(c2cccnc2)CCC(=O)NC1=O (stereo not shown)
IC50 Aromatase (aromatase; [9]): None
IC50 Desmolase (desmolase [1]; 7 micromolar (14C) cholesterol): None

CCC1(c2ccccn2)CCC(=O)NC1=O (stereo not shown) [3-ethyl-3-(2-pyridyl)-glutarimide]
sedative, hypnotic or anti-convulsive effect [2]: sedative and hypnotic effect

CCC1(c2ccncc2)CCC(=O)NC1=O (stereo not shown) [3-ethyl-3-(4-pyridyl)glutarimide, 3-ethyl-3-(4-pyridyl)-2,6-piperidinedione]
Desmolase inhibition (in words) (desmolase [1]): inhibits aromatase but not desmolase
IC50 Desmolase (desmolase [1]; 7 micromolar (14C) cholesterol): None
percentage of tumours which regress (in words) [3]: shows a similar effect
No. tumours grown by more than 100% [3]: 8 tumours
No. tumours grown by up to 100% [3]: 6 tumours
No. tumours regressed but by less than 50% [3]: 3 tumours
No. tumours regressed by 50% or more [3]: 9 tumours
No. tumours with no change [3]: 1 tumours
inhibition of tumour growth (in words) [3, 10]: at least as effective an inhibitor of tumour growth in this assay as aminoglutethimide
time within which salt came out of solution ([4]; 50 mg): ≤ 15 min
Abnormal gait (central nervous system [5]; 200 mg/kg i.p.): -
Corneal reflex (central nervous system [5]; 200 mg/kg i.p.): +
Flexor reflex (central nervous system [5]; 200 mg/kg i.p.): +
Grooming (central nervous system [5]; 200 mg/kg i.p.): -
Motor activity (central nervous system [5]; 200 mg/kg i.p.): N
Righting reflex (central nervous system [5]; 200 mg/kg i.p.): +
Tremors (central nervous system [5]; 200 mg/kg i.p.): -
Twitches (central nervous system [5]; 200 mg/kg i.p.): -
observable differences from control mice (in words) (central nervous system [5]; 200 mg/kg i.p.): no grossly observable differences from the control mice
Passivity (central nervous system [5]; 200 mg/kg i.p.): 0
Abnormal gait (central nervous system [5]; 300 mg/kg i.p.): -
Corneal reflex (central nervous system [5]; 300 mg/kg i.p.): +
Flexor reflex (central nervous system [5]; 300 mg/kg i.p.): +
Grooming (central nervous system [5]; 300 mg/kg i.p.): +
Motor activity (central nervous system [5]; 300 mg/kg i.p.): N
Righting reflex (central nervous system [5]; 300 mg/kg i.p.): +
Tremors (central nervous system [5]; 300 mg/kg i.p.): -
Twitches (central nervous system [5]; 300 mg/kg i.p.): -
spontaneous motor activity and struggle response (in words) (central nervous system [5]; 300 mg/kg i.p.): some mice showed slight reduction in spontaneous motor activity and diminished struggle response
Corneal reflex (central nervous system [5]; 400 mg/kg i.p.): +
Flexor reflex (central nervous system [5]; 400 mg/kg i.p.): +
Grooming (central nervous system [5]; 400 mg/kg i.p.): +
Motor activity (central nervous system [5]; 400 mg/kg i.p.): Dec
Righting reflex (central nervous system [5]; 400 mg/kg i.p.): +
Tremors (central nervous system [5]; 400 mg/kg i.p.): -
Twitches (central nervous system [5]; 400 mg/kg i.p.): -
activity, passivity and hindlimb control (in words) (central nervous system [5]; 400 mg/kg i.p.): all mice were noticeably less active, more passive and had lost some control of their hindlimbs
reflexes (in words) (central nervous system [5]; 400 mg/kg i.p.): All reflexes were still evident and the augmented flexor reflex, as had been noted with APG and CPZ-treated animals, was not present
Passivity (central nervous system [5]; 400 mg/kg i.p.): 3
lethality (central nervous system [5]; 500 mg/kg i.p., three mice): lethal to the three mice tested
sedative side-effects (central nervous system [5]; [10]): lower than that of aminoglutethimide
effect on motor co-ordination (in words) (central nervous system [6]; 300 mg/kg i.p.): little difference from the control
effect on motor co-ordination (in words) (central nervous system [6]; 400 mg/kg i.p.): the mice became more rigid, and while falling off the faster rod more frequently they tended to slump round the slowly rotating rod, and so stay on for a longer time
Falls/2 min (central nervous system [6]; 1 r.p.m., 15 min, 300 mg/kg i.p.): 0.6 ± 0.3 Falls/2 min
Falls/2 min (central nervous system [6]; 1 r.p.m., 15 min, 400 mg/kg i.p.): 0.8 ± 0.4 Falls/2 min
Falls/2 min (central nervous system [6]; 1 r.p.m., 30 min, 400 mg/kg i.p.): 0.4 ± 0.2 Falls/2 min
Falls/2 min (central nervous system [6]; 3 r.p.m., 15 min, 300 mg/kg i.p.): 1.5 ± 0.5 Falls/2 min
Falls/2 min (central nervous system [6]; 3 r.p.m., 15 min, 400 mg/kg i.p.): 4.8 ± 1.0 Falls/2 min
Falls/2 min (central nervous system [6]; 3 r.p.m., 30 min, 300 mg/kg i.p.): 2.0 ± 0.2 Falls/2 min
Falls/2 min (central nervous system [6]; 3 r.p.m., 30 min, 400 mg/kg i.p.): 3.6 ± 1.3 Falls/2 min
time of peak effect after injection (central nervous system [6]): 15 min
prevention of pentylenetetrazol-induced convulsions (central nervous system [7]; 400, 300 and 200 mg/kg i.p.): None of these doses prevented the pentylenetetrazol-induced convulsions
anti-convulsant side-effects (central nervous system [7]; [10]): lower than that of aminoglutethimide

CCC1(c2ccnc(C(C)(C)C)c2)CCC(=O)NC1=O (stereo not shown) [Example 4]
IC50 (aromatase; [9]): 20 µM
IC50 Desmolase (desmolase [1]; 7 micromolar (14C) cholesterol): None

CCC1(c2ccccc2)CCC(=O)N(N)C1=O (stereo not shown) [N-aminoglutethimide, 1-amino-3-ethyl-3-phenylglutarimide]
Desmolase inhibition (desmolase [1]): + + +

C1CCc2nnnn2CC1 [Pentylenetetrazol, pentylenetetrazol, reference compound]
convulsant activity (central nervous system [7]; 50 mg/kg after NaCl vehicle, within 5 minutes): Increased motor activity was followed by tonic convulsions, then severe clonic extensor convulsions which caused death

CCC1(c2ccc(N)cc2)CCC(=O)NC1=O (stereo not shown) [aminoglutethimide, 3-ethyl-3-(4-aminophenyl)glutarimide, reference compound]
Desmolase inhibition (desmolase [1]): + + +
IC50 (desmolase [1]; 7 micromolar (14C) cholesterol): 30 µM
percentage of tumours which regress (in words) [3]: causes an increase in the percentage of tumours which regress
No. tumours grown by more than 100% [3]: 5 tumours
No. tumours grown by up to 100% [3]: 2 tumours
No. tumours regressed but by less than 50% [3]: 3 tumours
No. tumours regressed by 50% or more [3]: 4 tumours
No. tumours with no change [3]: 0 tumours
time after which salt precipitated from solution ([4]; 40 mg in 2 ml): > 2 h
inhibition of desmolase (desmolase [8]): also inhibits the enzyme desmolase
Corneal reflex (central nervous system [5]; 100 mg/kg i.p.): +
Flexor reflex (central nervous system [5]; 100 mg/kg i.p.): Inc
Grooming (central nervous system [5]; 100 mg/kg i.p.): +
Motor activity (central nervous system [5]; 100 mg/kg i.p.): Dec
Righting reflex (central nervous system [5]; 100 mg/kg i.p.): +
Tremors (central nervous system [5]; 100 mg/kg i.p.): -
Twitches (central nervous system [5]; 100 mg/kg i.p.): -
corneal, righting and flexor reflexes (in words) (central nervous system [5]; 100 mg/kg i.p.): Corneal, righting and flexor reflexes were still apparent
sedation (in words) (central nervous system [5]; 100 mg/kg i.p.): marked sedation
flexor reflex (in words) (central nervous system [5]; 100 mg/kg i.p., compared to untreated animals): slightly augmented
Passivity (central nervous system [5]; 100 mg/kg i.p.): 3
sleep (in words) (central nervous system [5]; 200 mg/kg i.p., three animals): all fell asleep within a few minutes of the injection
effect on motor co-ordination (in words) (central nervous system [6]; 100 mg/kg i.p. (Table 3)): pronounced effect on motor co-ordination. Most of the mice were heavily sedated and thus completely unable to maintain themselves on the rod at either speed
Falls/2 min (central nervous system [6]; 1 r.p.m., 15 min, 100 mg/kg i.p.): 18.5 ± 3.5 Falls/2 min
Falls/2 min (central nervous system [6]; 1 r.p.m., 30 min, 100 mg/kg i.p.): 4.8 ± 2.0 Falls/2 min
Falls/2 min (central nervous system [6]; 3 r.p.m., 15 min, 100 mg/kg i.p.): 27.0 ± 2.0 Falls/2 min
time of peak effect after injection (central nervous system [6]): 15 min
prevention of pentylenetetrazol-induced convulsions (central nervous system [7]; i.p., dose not stated): prevented convulsions

CN(C)CCCN1c2ccccc2Sc2ccc(Cl)cc21 [chlorpromazine]
unpredictable jumping and darting movements (central nervous system [5]; 10 mg/kg i.p., particularly on the rotarod): 5 out of 8

CCC1(c2ccccn2)CCC(=O)NC1=O (stereo not shown) [drawing 11]
IC50 Aromatase (aromatase): None
IC50 Desmolase (desmolase [1]; 7 micromolar (14C) cholesterol): None

CCC1(c2ccccc2)CCC(=O)NC1=O (stereo not shown) [glutethimide, 3-ethyl-3-phenylglutarimide]
sedative, hypnotic or anti-convulsive effect [2]: sedative and hypnotic agent

CCC1(c2cccc(N)c2)CCC(=O)NC1=O (stereo not shown) [m-aminoglutethimide, 3-ethyl-3-(3-aminophenyl)glutarimide]
Aromatase inhibition (aromatase): +
Desmolase inhibition (desmolase [1]): + + +
